The assay addresses human adenosine A2b receptor (Homo sapiens (Human), UniProt P29275). In words: Cellular in vitro reporter gene test for A2b receptor activity (CHO-K1, CRE-luciferase, NECA stimulation). It is filed as cell-based. The note with it: recombinant CHO-K1 cell line, CRE-luciferase reporter, antagonism of EC50 concentration of NECA; in some cases means of several determinations, rounded to two significant figures; read-out: A2b receptor IC50. An outline of the steps:
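CHO-K1 cells with CRE-driven luciferase; antagonists co-incubated with NECA at its EC50, determined in a pre-experiment on each test day. Luciferase read by luminescence 3 h after NECA addition.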
human adenosine A2b receptor, sequence (P29275 whole entry): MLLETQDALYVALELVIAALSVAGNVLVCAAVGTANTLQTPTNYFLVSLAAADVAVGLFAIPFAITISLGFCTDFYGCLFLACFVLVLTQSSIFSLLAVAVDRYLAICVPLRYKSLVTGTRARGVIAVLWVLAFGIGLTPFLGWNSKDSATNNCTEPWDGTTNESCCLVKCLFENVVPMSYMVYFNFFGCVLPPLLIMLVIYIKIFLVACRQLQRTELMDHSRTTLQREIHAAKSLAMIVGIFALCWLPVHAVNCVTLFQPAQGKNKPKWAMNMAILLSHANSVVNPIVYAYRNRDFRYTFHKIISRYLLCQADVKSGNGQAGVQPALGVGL
With `COCCn1c(=O)n(C(C)C)c(=O)c2c(C)c(CN3CCNC(=O)C3=O)sc21` [Example 479, 6-[(2,3-Dioxopiperazin-1-yl)methyl]-3-isopropyl-1-(2-methoxyethyl)-5-methylthieno[2,3-d]pyrimidine-2,4(1H,3H)-dione], the IC50 (as a rule, the concentration that inhibits the measured activity by half) was 140 nM.

Regarding `Cc1c(CN2CCNC(=O)C2=O)sc2c1c(=O)n(CC(C)(C)C)c(=O)n2CCCF` [Example 273, 3-(2,2-Dimethylpropyl)-6-[(2,3-dioxopiperazin-1-yl)methyl]-1-(3-fluoropropyl)-5-methylthieno[2,3-d]pyrimidine-2,4(1H,3H)-dione], the IC50 was 19 nM. As for `CCn1c(=O)c2c(C)c(Cn3cc[nH]c3=O)sc2n(CCC(F)(F)F)c1=O` [Example 241, 3-Ethyl-5-methyl-6-[(2-oxo-2,3-dihydro-1H-imidazol-1-yl)methyl]-1-(3,3,3-trifluoropropyl)thieno[2,3-d]pyrimidine-2,4(1H,3H)-dione], the figure is 1.2 nM; as for `COCCn1c(=O)n(CC(C)(C)C)c(=O)c2c(C)c(CN3CCNC3=O)sc21` [Example 202, 3-(2,2-Dimethylpropyl)-1-(2-methoxyethyl)-5-methyl-6-[(2-oxoimidazolidin-1-yl)methyl]thieno[2,3-d]pyrimidine-2,4(1H,3H)-dione], 7.8 nM; as for `Cc1c(CN2CCNC(=O)C2=O)sc2c1c(=O)n(CC(F)(F)F)c(=O)n2C` [Example 124, 6-[(2,3-Dioxopiperazin-1-yl)methyl]-1,5-dimethyl-3-(2,2,2-trifluoroethyl)thieno[2,3-d]pyrimidine-2,4(1H,3H)-dione], 60 nM. As for `CCn1c(=O)c2c(C)c(CN3CCNC(=O)C3=O)sc2n(CF)c1=O` [Example 393, 6-[(2,3-Dioxopiperazin-1-yl)methyl]-3-ethyl-1-(fluoromethyl)-5-methylthieno[2,3-d]pyrimidine-2,4(1H,3H)-dione], the IC50 came out at 45 nM. As for `CCn1c(=O)c2c(C)c(CN3CCNC3=NC#N)sc2n(CC2CCO2)c1=O` (single isomer, unassigned) [Example 258, [1-{[3-Ethyl-5-methyl-1-(oxetan-2-ylmethyl)-2,4-dioxo-1,2,3,4-tetrahydrothieno[2,3-d]pyrimidin-6-yl]methyl}imidazolidin-2-ylidene]cyanamide], the figure is 33 nM. Take `CCn1c(=O)c2c(C)c(CN3CCNC(=O)C3=O)sc2n(CCC(F)(F)F)c1=O` [Example 394, 6-[(2,3-Dioxopiperazin-1-yl)methyl]-3-ethyl-5-methyl-1-(3,3,3-trifluoropropyl)thieno[2,3-d]pyrimidine-2,4(1H,3H)-dione]: the IC50 came to 3.2 nM. To `Cc1c(Cn2nc[nH]c2=O)sc2c1c(=O)n(C(C)C)c(=O)n2CC1CCCO1` (single isomer, unassigned) [Example 425, 3-Isopropyl-5-methyl-6-[(5-oxo-4,5-dihydro-1H-1,2,4-triazol-1-yl)methyl]-1-(tetrahydrofuran-2-ylmethyl)thieno[2,3-d]pyrimidine-2,4(1H,3H)-dione] belongs 42 nM; to `CCn1c(=O)c2c(C)c(CN3CCNC3=O)sc2n(CC2CCCO2)c1=O` (single isomer, unassigned; enantiomer 2) [Example 70, 3-Ethyl-5-methyl-6-[(2-oxoimidazolidin-1-yl)methyl]-1-(tetrahydrofuran-2-ylmethyl)thieno[2,3-d]pyrimidine-2,4(1H,3H)-dione (Enantiomer 2)], 21 nM.

Take `CCn1c(=O)c2c(C)c(CN3CCCOC3=O)sc2n(CCC(F)(F)F)c1=O` [Example 25, 3-Ethyl-5-methyl-6-[(2-oxo-1,3-oxazinan-3-yl)methyl]-1-(3,3,3-trifluoropropyl)thieno[2,3-d]pyrimidine-2,4(1H,3H)-dione]: the IC50 was determined as 5.7 nM. To `Cc1c(CN2CCNC2=S)sc2c1c(=O)n(CC(F)(F)F)c(=O)n2CC1CCCO1` (racemic) [Example 157, 5-Methyl-1-(tetrahydrofuran-2-ylmethyl)-6-[(2-thioxoimidazolidin-1-yl)methyl]-3-(2,2,2-trifluoroethyl)thieno[2,3-d]pyrimidine-2,4(1H,3H)-dione] belongs 5.7 nM; to `COCCn1c(=O)n(CC(C)(C)C)c(=O)c2c(C)c(CN3CCNC(=O)C3=O)sc21` [Example 274, 3-(2,2-Dimethylpropyl)-6-[(2,3-dioxopiperazin-1-yl)methyl]-1-(2-methoxyethyl)-5-methylthieno[2,3-d]pyrimidine-2,4(1H,3H)-dione], 24 nM; to `CCOCCn1c(=O)n(CCOC)c(=O)c2c(C)c(CN3CCNC3=O)sc21` [Example 232, 1-(2-Ethoxyethyl)-3-(2-methoxyethyl)-5-methyl-6-[(2-oxoimidazolidin-1-yl)methyl]thieno[2,3-d]pyrimidine-2,4(1H,3H)-dione], 93 nM. To `Cc1c(CN2CCNC2=O)sc2c1c(=O)n(C(C)C)c(=O)n2CC1CCCO1` (single isomer, unassigned) [Example 187, 3-Isopropyl-5-methyl-6-[(2-oxoimidazolidin-1-yl)methyl]-1-(tetrahydrofuran-2-ylmethyl)thieno[2,3-d]pyrimidine-2,4(1H,3H)-dione] belongs 6.3 nM; to `CCn1c(=O)c2c(C)c(CN3CCNC3=S)sc2n(CC2CCCO2)c1=O` (single isomer, unassigned) [Example 139, 3-Ethyl-5-methyl-1-(tetrahydrofuran-2-ylmethyl)-6-[(2-thioxoimidazolidin-1-yl)methyl]thieno[2,3-d]pyrimidine-2,4(1H,3H)-dione], 2.8 nM. With `Cc1c(CN2CCNC(=O)C2=O)sc2c1c(=O)n(CC(C)(C)C)c(=O)n2CC1CCCO1` (single isomer, unassigned) [Example 485, 3-(2,2-Dimethylpropyl)-6-[(2,3-dioxopiperazin-1-yl)methyl]-5-methyl-1-(tetrahydrofuran-2-ylmethyl)thieno[2,3-d]pyrimidine-2,4(1H,3H)-dione], the IC50 turned out to be 52 nM. As for `Cc1c(CN2CCNC2=NC#N)sc2c1c(=O)n(CC(F)(F)F)c(=O)n2CC1CCO1` (single isomer, unassigned) [Example 449, [1-{[5-Methyl-1-(oxetan-2-ylmethyl)-2,4-dioxo-3-(2,2,2-trifluoroethyl)-1,2,3,4-tetrahydrothieno[2,3-d]pyrimidin-6-yl]methyl}imidazolidin-2-ylidene]cyanamide], the figure is 54 nM. To `CCn1c(=O)c2c(C)c(CN3CCNC3=NC(=O)OC)sc2n(CC2CCO2)c1=O` (single isomer, unassigned) [Example 373, Methyl [1-{[3-ethyl-5-methyl-1-(oxetan-2-ylmethyl)-2,4-dioxo-1,2,3,4-tetrahydrothieno[2,3-d]pyrimidin-6-yl]methyl}imidazolidin-2-ylidene]carbamate] belongs 5.9 nM. To `CC#CCn1c(=O)c2c(C)c(CN3CCNC3=O)sc2n(CCOC)c1=O` [Example 317, 3-(But-2-yn-1-yl)-1-(2-methoxyethyl)-5-methyl-6-[(2-oxoimidazolidin-1-yl)methyl]thieno[2,3-d]pyrimidine-2,4(1H,3H)-dione] belongs 25 nM; to `CCn1c(=O)c2c(C)c(CN3CCNC3=S)sc2n(CCOC2CC2)c1=O` [Example 138, 1-[2-(Cyclopropyloxy)ethyl]-3-ethyl-5-methyl-6-[(2-thioxoimidazolidin-1-yl)methyl]thieno[2,3-d]pyrimidine-2,4(1H,3H)-dione], 12 nM. As to `COC(=O)N=C1NCCN1Cc1sc2c(c1C)c(=O)n(CC(F)(F)F)c(=O)n2CC1CCCO1` (single isomer, unassigned) [Example 468, Methyl [1-{[5-methyl-2,4-dioxo-1-(tetrahydrofuran-2-ylmethyl)-3-(2,2,2-trifluoroethyl)-1,2,3,4-tetrahydrothieno[2,3-d]pyrimidin-6-yl]methyl}imidazolidin-2-ylidene]carbamate], the concentration for half-maximal inhibition (IC50) was 6.1 nM. As for `CCn1c(=O)c2c(C)c(CN3CCNC3=O)sc2n(CC2CCO2)c1=O` (single isomer, unassigned; enantiomer 2) [Example 67, 3-Ethyl-5-methyl-1-(oxetan-2-ylmethyl)-6-[(2-oxoimidazolidin-1-yl)methyl]thieno[2,3-d]pyrimidine-2,4(1H,3H)-dione (Enantiomer 2)], the figure is 29 nM; as for `CCn1c(=O)c2c(C)c(CN3CCNC3=O)sc2n(CCC(C)C)c1=O` [Example 79, 3-Ethyl-5-methyl-1-(3-methylbutyl)-6-[(2-oxoimidazolidin-1-yl)methyl]thieno[2,3-d]pyrimidine-2,4(1H,3H)-dione], 9.9 nM; as for `Cc1c(CN2CCNC2=O)sc2c1c(=O)n(CC(C)C)c(=O)n2CCF` [Example 88, 1-(2-Fluoroethyl)-3-isobutyl-5-methyl-6-[(2-oxoimidazolidin-1-yl)methyl]thieno[2,3-d]pyrimidine-2,4(1H,3H)-dione], 6.7 nM. Regarding `Cc1c(Cn2nc[nH]c2=O)sc2c1c(=O)n(C(C)C)c(=O)n2CC1CCCO1` (racemic) [Example 424, 3-Isopropyl-5-methyl-6-[(5-oxo-4,5-dihydro-1H-1,2,4-triazol-1-yl)methyl]-1-(tetrahydrofuran-2-ylmethyl)thieno[2,3-d]pyrimidine-2,4(1H,3H)-dione], the IC50 was 88 nM. As for `Cc1c(CN2CCNC2=NC#N)sc2c1c(=O)n(CC(C)(C)C)c(=O)n2CCCF` [Example 444, [1-{[3-(2,2-Dimethylpropyl)-1-(3-fluoropropyl)-5-methyl-2,4-dioxo-1,2,3,4-tetrahydrothieno[2,3-d]pyrimidin-6-yl]methyl}imidazolidin-2-ylidene]cyanamide], the figure is 11 nM; as for `COCCn1c(=O)n(CCCF)c(=O)c2c(C)c(CN3CCNC3=O)sc21` [Example 224, 3-(3-Fluoropropyl)-1-(2-methoxyethyl)-5-methyl-6-[(2-oxoimidazolidin-1-yl)methyl]thieno[2,3-d]pyrimidine-2,4(1H,3H)-dione], 31 nM.

For the origin of these results see patent US10428083B2, “Heterocyclylmethyl-thienouracile as antagonists of the adenosine-A2B-receptor” (BAYER PHARMA AKTIENGESELLSCHAFT, priority 2015, dated 2019).
